According to US20230000808A1, “COMPOSITIONS AND METHODS EXCLUDING OR WITH REDUCED GLUTAMINE FOR THE TREATMENT OF HEMOGLOBINOPATHIES AND THALASSEMIAS” (AXCELLA HEALTH INC., priority 2019, published 2023):

Legend:
IL-6 [1] = test: LPS-induced IL-6 secretion in primary human monocyte-derived macrophages (ELISA); type: cell-based; set-up: Donor 1 IL-6 Measurements Mean: unit not given here; settings: for Donor 1 IL-6 Measurements Mean / Donor 2 IL-6 Measurements Mean / Donor 3 IL-6 Measurements Mean: LPS, baseline subtracted; for effect on LPS-induced IL-6 secretion: Two Way ANOVA Dunnett
Protocol: Primary human PMBC derived macrophages were seeded on day 0 at 3.0×10^4 cells per well in 96-well microplates (ThermoFisher) in Dulbecco's Modified Eagle Medium (DMEM) (Gibco) supplemented with penicillin-streptomycin (Hyclone) and 10% heat inactivated fetal bovine serum (HI-FBS) (Atlanta Bio) and incubated overnight at 37° C., 5% CO2. On day 1, cells were washed once with 150 μl per well DPBS (Gibco) and treated with 75 μl of: • a. […] The same medium described above with one amino acid at various concentrations including complete dropout. […] On day 3, the supernatant was collected and immediately frozen in −80° C. freezer. Cells were washed once with 150 μl DPBS and viability was assessed using the WST-8 Cell Proliferation Cytotoxicity Assay (Dojindo). […] Protein levels in supernatant samples were analyzed by ELISA for IL-6 and TNFα using commercially available kits (R&D Systems) according to manufacturer-supplied protocols.

ICAM-1 = ICAM-1 cell integrated intensity in HLMVEC treated with TNF-α (immunofluorescence); type: cell-based, human; settings: for TNFα induced ICAM-1 expression levels in HLMVEC: 0.5 ng/mL TNF-α, amino acids at 20× HMDB, 24 hours
Procedure, shortened: (§1)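 Primary human lung microvascular endothelial cells, 24 h in medium with SCD-like amino acid profile plus 0.5 ng/mL TNF-α, with or without amino acids at 20× mean plasma level. Fixed, immunostained for ICAM-1 and VCAM-1; integrated intensity per cell by high-content imaging.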

VCAM-1 = VCAM-1 cell integrated intensity in HLMVEC treated with TNF-α (immunofluorescence); type: cell-based, human; settings: for VCAM-1 expression in HLMVEC: 0.5 ng/mL TNF-α, amino acids at 20× HMDB, 24 hours
Procedure, shortened: as §1

IL-6 [2] = test: Secreted IL-6 in HLMVEC treated with TNF-α (FirePlex); type: cell-based, human
Procedure, shortened: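 Primary human lung microvascular endothelial cells, after overnight attachment, were switched to medium with amino acid levels mimicking SCD patient blood, plus 0.5 ng/mL TNF-α with or without amino acid treatments at 20× mean physiological plasma concentrations. Supernatant IL-6 measured by FirePlex immunoassay, interpolated from a standard curve.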

[3] = HLMVEC + 0.5 ng/mL TNF-α, 24 h, amino acids 20x HMDB, Nac/Cit/Car 5 mM as bracketed

## NC(=O)CC[C@H](N)C(=O)O [Glutamine, L-glutamine]
IL-6 [1]; Donor 1, Conc. 749 μM (baseline)
  Donor 1 IL-6 Measurements Mean: 0
IL-6 [1]; Donor 1, Conc. 3747 μM
  Donor 1 IL-6 Measurements Mean: 291.5443
IL-6 [1]; Donor 1, Conc. 11242 μM
  Donor 1 IL-6 Measurements Mean: 397.1745
IL-6 [1]; Donor 1, Conc. 22484 μM
  Donor 1 IL-6 Measurements Mean: 440.1437
IL-6 [1]; Donor 1
  effect on LPS-induced IL-6 secretion: increased
IL-6 [1]; Donor 2, Conc. 749 μM (baseline)
  Donor 2 IL-6 Measurements Mean: 2.37E−15
IL-6 [1]; Donor 2, Conc. 3747 μM
  Donor 2 IL-6 Measurements Mean: 22.52
IL-6 [1]; Donor 2, Conc. 11242 μM
  Donor 2 IL-6 Measurements Mean: 63.31
IL-6 [1]; Donor 2, Conc. 22484 μM
  Donor 2 IL-6 Measurements Mean: 34.39
IL-6 [1]; Donor 2
  effect on LPS-induced IL-6 secretion: increased
IL-6 [1]; Donor 3, Conc. 749 μM (baseline)
  Donor 3 IL-6 Measurements Mean: 3.79E−14
IL-6 [1]; Donor 3, Conc. 3747 μM
  Donor 3 IL-6 Measurements Mean: 25.35
IL-6 [1]; Donor 3, Conc. 11242 μM
  Donor 3 IL-6 Measurements Mean: 98.4903
IL-6 [1]; Donor 3, Conc. 22484 μM
  Donor 3 IL-6 Measurements Mean: 108.5158
IL-6 [1]; Donor 3
  effect on LPS-induced IL-6 secretion: significantly increased
ICAM-1
  TNFα induced ICAM-1 expression levels in HLMVEC: increased
VCAM-1
  VCAM-1 expression in HLMVEC: increased
IL-6 [2]; 0.5 ng/mL TNF-α, amino acids at 20× HMDB, 24 hours
  IL-6 secretion from TNFα treated HLMVEC: increased

## CC(=O)N[C@@H](CS)C(=O)O [N-Acetyl Cysteine, N-acetylcysteine]
IL-6 [1]; Donor 1, Conc. 0 X (baseline)
  Donor 1 IL-6 Measurements Mean: 0
IL-6 [1]; Donor 1, Conc. 5 X
  Donor 1 IL-6 Measurements Mean: 308.1772
IL-6 [1]; Donor 1, Conc. 10 X
  Donor 1 IL-6 Measurements Mean: −121.142
IL-6 [1]; Donor 1, Conc. 20 X
  Donor 1 IL-6 Measurements Mean: −553.802
IL-6 [1]; Donor 1, Conc. 40 X
  Donor 1 IL-6 Measurements Mean: −914.194
IL-6 [1]; Donor 1
  effect on LPS-induced IL-6 secretion: significantly reduced
IL-6 [1]; Donor 2, Conc. 0 X (baseline)
  Donor 2 IL-6 Measurements Mean: −2.4E−15
IL-6 [1]; Donor 2, Conc. 5 X
  Donor 2 IL-6 Measurements Mean: −0.7946
IL-6 [1]; Donor 2, Conc. 10 X
  Donor 2 IL-6 Measurements Mean: −9.751
IL-6 [1]; Donor 2, Conc. 20 X
  Donor 2 IL-6 Measurements Mean: −24.9999
IL-6 [1]; Donor 2, Conc. 40 X
  Donor 2 IL-6 Measurements Mean: −33.7585
IL-6 [1]; Donor 2
  effect on LPS-induced IL-6 secretion: significantly reduced
IL-6 [1]; Donor 3, Conc. 0 X (baseline)
  Donor 3 IL-6 Measurements Mean: −9.5E−15
IL-6 [1]; Donor 3, Conc. 5 X
  Donor 3 IL-6 Measurements Mean: −70.3269
IL-6 [1]; Donor 3, Conc. 10 X
  Donor 3 IL-6 Measurements Mean: −103.586
IL-6 [1]; Donor 3, Conc. 20 X
  Donor 3 IL-6 Measurements Mean: −122.656
IL-6 [1]; Donor 3, Conc. 40 X
  Donor 3 IL-6 Measurements Mean: −140.851
IL-6 [1]; Donor 3
  effect on LPS-induced IL-6 secretion: significantly reduced
ICAM-1
  TNFα induced ICAM-1 expression levels in HLMVEC: reduced levels of ICAM-1 expression to a lesser extent
ICAM-1; [3]
  ICAM-1 Cell Integrated Intensity Median: −0.222
VCAM-1
  VCAM-1 expression in HLMVEC: greatly reduced
VCAM-1; [3]
  VCAM-1 Cell Integrated Intensity Median: −0.315
IL-6 [2]; [3]
  Secreted IL6 Median: −0.497
